Laboratory results from ChEMBL document CHEMBL2417512, “Spirolactam-based acetyl-CoA carboxylase inhibitors: toward improved metabolic stability of a chromanone lead structure” (J Med Chem, 2013).
Values after ≈ are worked out from the molar mass of the structure shown.

Legend:
[1] = Lipophilicity, log D of the compound; assay type: physicochemical; conditions: octanol/water
[2] = Hepatic clearance in human liver microsomes; assay type: ADME, Microsome; conditions: read-out: CLH
[3] = Oral bioavailability in rat at 5 mg/kg; assay type: ADME, organism-based; conditions: in vivo
[4] = AUC (last) in rat at 5 mg/kg, po; assay type: ADME, organism-based; parameters: time 0 - last, dose 5 mg/kg, route oral; conditions: plasma
[5] = Solubility of the compound at pH 6.5; assay type: physicochemical; conditions: buffer
[6] = Volume of distribution in rat at 1 mg/kg, iv; assay type: ADME, organism-based; parameters: dose 1 mg/kg, route intravenous; conditions: in vivo
[7] = Cmax in rat at 5 mg/kg, po; assay type: ADME, organism-based; parameters: dose 5 mg/kg, route oral; conditions: in vivo
[8] = Systemic clearance in rat at 1 mg/kg, iv; assay type: ADME, organism-based; parameters: dose 1 mg/kg, route intravenous; conditions: in vivo
[9] = Thermodynamic solubility of the compound at pH 1.2; assay type: physicochemical; conditions: buffer, read-out: Therm_solubility

Row | logD [1] | microsomal CLint [2] [µL/min/mg] | Structure (SMILES) | further results
1 | 1.9 | 19 | CN(C)c1ccc2ccc(C(=O)N3CCC4(CC3)Cc3cn(C(C)(C)C)nc3C(=O)N4)cc2n1 | –
2 | 2.5 | < 8 | CC(C)(C)n1cc2c(n1)C(=O)NC1(CCN(C(=O)c3ccc4[nH]nc(C(F)(F)F)c4c3)CC1)C2 | –
3 | 1.8 | < 8 | CC(C)(C)n1cc2c(n1)C(=O)NC1(CCN(C(=O)c3ccc4[nH]nc(Cl)c4c3)CC1)C2 | –
4 | 2.6 | 17 | CC(C)(C)n1cc2c(n1)C(=O)NC1(CCN(C(=O)c3ccc4[nH]cc(Cl)c4c3)CC1)C2 | –
5 | 3.5 | 31 | CC(C)(C)n1cc2c(n1)C(=O)NC1(CCN(C(=O)c3ccc4c(Cl)c[nH]c4c3)CC1)C2 | –
6 | 1.4 | < 8 | CC(C)(C)n1cc2c(n1)C(=O)NC1(CCN(C(=O)c3cnc4c(Cl)c[nH]c4c3)CC1)C2 | –
7 | 1.6 | < 8 | COc1cc2cc(C(=O)N3CCC4(CC3)Cc3cn(C(C)(C)C)nc3C(=O)N4)ccc2cn1 | –
8 | 2.2 | < 8 | COc1ccc2ccc(C(=O)N3CCC4(CC3)Cc3cn(C(C)(C)C)nc3C(=O)N4)cc2n1 | bioavailability [3]: 71%; AUC(0-t) [4]: 2070 ng·h/mL; solubility [5]: 0.05 µg/mL (≈ 0.112 µM); Vd [6]: 1.7 L/kg; Cmax [7]: 403 ng/mL; clearance [8]: 29 mL/min/kg; solubility thermodynamic [9]: 0.49 µg/mL (≈ 1.09 µM)
9 | 2 | 12 | COc1nccc2ccc(C(=O)N3CCC4(CC3)Cc3cn(C(C)(C)C)nc3C(=O)N4)cc12 | bioavailability [3]: 28%; AUC(0-t) [4]: 713 ng·h/mL; solubility [5]: 0.13 µg/mL (≈ 0.29 µM); Cmax [7]: 186 ng/mL; clearance [8]: 41 mL/min/kg
10 | 1.5 | 9 | CNc1ccc2ccc(C(=O)N3CCC4(CC3)Cc3cn(C(C)(C)C)nc3C(=O)N4)cc2n1 | solubility thermodynamic [9]: 4.8 µg/mL (≈ 10.7 µM)
11 | 1.5 | 25 | CNc1nccc2ccc(C(=O)N3CCC4(CC3)Cc3cn(C(C)(C)C)nc3C(=O)N4)cc12 | –
12 | 2.1 | 29 | CCCNc1ccc2ccc(C(=O)N3CCC4(CC3)Cc3cn(C(C)(C)C)nc3C(=O)N4)cc2n1 | –
13 | 1.4 | < 9 | CC(C)(C)n1cc2c(n1)C(=O)CC1(CCN(C(=O)c3ccc4[nH]ncc4c3)CC1)O2 | –
14 | 2.5 | 19 | Cc1ccc2c(c1)C(=O)CC1(CCN(C(=O)c3ccc4[nH]ncc4c3)CC1)O2 | –
15 | 1 | < 8 | CC(C)(C)n1cc2c(n1)C(=O)NC1(CCN(C(=O)c3ccc4[nH]ncc4c3)CC1)C2 | –
16 | 1.5 | < 8 | Cc1n[nH]c2c(C)cc(C(=O)N3CCC4(CC3)Cc3cn(C(C)(C)C)nc3C(=O)N4)cc12 | –
17 | 1.1 | < 8 | Cc1n[nH]c2c(C)cc(C(=O)N3CCC4(CC3)Cc3cn(C(C)C)nc3C(=O)N4)cc12 | –
18 | 1.7 | 35 | CCC(C)(C)n1cc2c(n1)C(=O)NC1(CCN(C(=O)c3cc(C)c4[nH]nc(C)c4c3)CC1)C2 | –
19 | 2.6 | 17 | Cc1n[nH]c2c(C)cc(C(=O)N3CCC4(CC3)Cc3cnn(C(C)(C)C)c3C(=O)N4)cc12 | –
20 | 1.7 | < 8 | Cc1n[nH]c2c(C)cc(C(=O)N3CCC4(CC3)Cc3cnn(C(C)C)c3C(=O)N4)cc12 | –
21 | 1.4 | 14 | Cc1n[nH]c2c(C)cc(C(=O)N3CCC4(CC3)Cc3cn(C(C)(C)C)nc3C(=O)N4C)cc12 | –
